Source: patent US11304919B2, “Utilization of cilastatin in inhibiting renal disorder” (NIIGATA UNIVERSITY, priority 2018, dated 2022)

What was measured:
[1] = test system: C57BL/6J mice; assay: Murine model of contrast nephropathy (Reference Example 1); assay type: in vivo, mouse
Protocol: Murine models of contrast nephropathy were constructed.
Left kidneys were extracted from C57BL/6J mice (male, aged 9-12 weeks, Charles River Laboratories International), and 14 days later, right kidney pedicles were ligated for 30 minutes. Thereafter, reperfusion was carried out. For the iomeprol-treated group, 200 μL of iomeprol was administered from the tail vein after 24 hours from the start of reperfusion. For the control group, 200 μL of normal saline instead of iomeprol was administered from the tail vein. After 48 hours from the administration, the animals in both groups were euthanized and evaluated.
For 24 hours before euthanization, urine samples were collected using a metabolic cage. […] The collected blood samples were centrifuged for 30 minutes at 800 g at room temperature to separate and collect the serum. The obtained urine and serum samples were stored at −80° C. until analysis.
For biochemical evaluation of renal injuries, serum creatinine (Cr) and urea nitrogen (MN) levels, and urinary Cr and β-D-N-acetylglucosaminidase (NAG) were measured. Serum MN and Cr measurements were contracted to Oriental Yeast Co., Ltd., and urinary NAG and Cr measurements were to SRL, Inc.
The obtained thin slices were stained with periodic acid-Shiff (PAS) and immunostained with the renal injury marker Kidney Injury Molecule-1 (KIM-1). The immunostaining was performed using VECTASTAIN Elite ABC Kit (Vector Laboratories, Inc.).

[2] = test system: megalin; assay: Contrast nephropathy model in kidney-specific megalin partial knockout mice (apoE-Cre), megalin/KIM-1 immunostaining (Reference Example 3); assay type: in vivo, mouse; details: 200 μL iomeprol, 48 h after administration, FIGS. 10A-10C
Protocol: Similar murine models of contrast nephropathy to those of Reference Example 1 were constructed using kidney-specific megalin partial knockout mice (apoE-Cre), and were used to verify the involvement of megalin in the onset of contrast-induced renal injuries.
Left kidneys were extracted from the apoE-Cre knockout mice, and 14 days later, right kidney pedicles were ligated for 30 minutes. Thereafter, reperfusion was carried out. After 24 hours from the start of reperfusion, 200 μL of iomeprol or normal saline was administered from the tail vein.
The stained slices were mounted with Slow Fade Gold Antifade Reagent (Life Technologies) and observed using a fluorescence microscopy (BZ-9000, Keyence). In particular, it was verified whether megalin and KIM-1 were expressed in the S1 and S2 segments of renal proximal tubules.

[3] = test system: C57BL/6J mice; assay: Inhibition of contrast-induced renal injuries in murine contrast nephropathy model (Example 2); assay type: in vivo, mouse
Protocol: In order to confirm the ability of cilastatin to inhibit renal injuries, C57BL/6J mice were simultaneously administered with an iodinated contrast medium and cilastatin, and the results were analyzed.
Left kidneys were extracted from the C57BL/6J mice, and 14 days later, right kidney pedicles were ligated for 30 minutes. Thereafter, reperfusion was carried out. […]
a) Contrast medium+cilastatin-treated group: 200 μL of iomeprol (CM)+400 mg/kg cilastatin (CS) (100 LL) b) Contrast medium+normal saline-treated group: 200 μL of iomeprol (CM)+100 μL of NS For each of the groups, after 48 hours from the medication, blood and urine samples were collected, and serum Cr, MN and cystatin C levels, and urinary Cr, NAG and KIM-1 levels were measured. Further, right kidneys were extracted and histologically evaluated by immunostaining with KIM-1 and staining with PAS. […] Serum cystatin C and urinary KIM-1 measurements were contracted to Oriental Yeast Co., Ltd.
0.5±: Clear but weak granular staining present focally along the luminal surface of non-atrophic proximal tubules 1+: Clear but weak granular staining completely surrounding the luminal surface of non-atrophic proximal tubules 2+: Moderately intense granular staining completely surrounding the luminal surface of non-atrophic proximal tubules and extending into intercellular junctions 3+: Strong large granular staining completely surrounding the luminal surface of non-atrophic proximal tubules and extending into intercellular junctions […]
Individuals meeting these criteria were regarded as individuals with onset of contrast nephropathy.

[4] = test system: protein of interest (carrier; megalin ligand); assay: Binding of contrast solid-phased magnetic beads to carrier protein, WB (Reference Example 5); details: 0/3/10 mM iomeprol solid-phased beads; protein 25 ng/μL; 4° C., 4 h; FIG. 21
Excerpt: A substance that can serve as a carrier for an iodinated contrast medium was selected by reference to the information reported on megalin ligands. To be specific, one protein known to be filtered at the glomeruli and resorbed by renal proximal tubular epithelial cells via megalin was selected among megalin ligands.
The binding specificity between this protein and an iodinated contrast medium was verified using contrast solid-phased magnetic beads by following the procedures described below.
Five milligrams each of the 0 mM/3 mM/10 mM contrast solid-phased beads prepared in Reference Example 4 were dispersed and washed according to the procedure described in Reference Example 4. Next, the protein of interest (produced by LifeSpan BioSciences, Inc.) was dissolved in 100 mM KCL to prepare a 25 ng/μL solution. The above-washed beads were each dispersed in 200 μL of the prepared solution and reacted at 4° C. for 4 hours. Then, heat-eluted samples were prepared by following the procedure described in Reference Example 4.
The procedures for sample electrophoresis and WB analysis were performed in accordance with Reference Example 4. An antibody against the protein of interest (a polyclonal antibody produced by Bioss Inc.) was added at a concentration of 2 μg/mL and reacted at room temperature for 2 hours.

[5] = target: megalin (Mus musculus, UniProt A2ARV4); assay: EPMA mapping of iodine in kidney tissue of kidney-specific megalin complete knockout (NDRG1-Cre) and control mice (Reference Example 2); details: control (uninduced) mice; 200 μL tail vein; kidneys extracted 3 h later; FIGS. 4-9
Excerpt: (§1) EPMA is an electron microprobe (EMP) instrument that analyzes the constituent elements of a substance of interest by irradiating electron beams onto the substance and measuring the wavelengths and intensities of characteristic X-rays unique to the different elements, which are generated by the electron beams. […] The behaviors of contrast media per se can be verified by analyzing iodine content distribution.
(§2) In order to use right kidneys for analysis, 3 mm-thick sections containing a kidney pedicle portion were prepared, embedded in OCT compound, freeze-fixed with liquid nitrogen, and stored at −80° C.
(§3) Next, the stored sections were sliced at a thickness of 4 μm using a cryostat (CM1850, Leica Biosystems), and the obtained slices were attached onto carbon-coated grids and freeze-dried overnight.
(§4) 378 μm^2 cortical areas in the prepared tissue slices were analyzed by EPMA (EPMA 1610, Shimadzu Corporation, Kyoto, Japan) to map iodine present in the structures of the contrast media.

[6] = test system: megalin; assay: as above; details: kidney-specific megalin complete knockout mice; 200 μL tail vein; kidneys extracted 3 h later; FIGS. 4-9
Excerpt: as §1, §2, §3, §4

megalin (Mus musculus, UniProt A2ARV4), sequence (A2ARV4 26-4660): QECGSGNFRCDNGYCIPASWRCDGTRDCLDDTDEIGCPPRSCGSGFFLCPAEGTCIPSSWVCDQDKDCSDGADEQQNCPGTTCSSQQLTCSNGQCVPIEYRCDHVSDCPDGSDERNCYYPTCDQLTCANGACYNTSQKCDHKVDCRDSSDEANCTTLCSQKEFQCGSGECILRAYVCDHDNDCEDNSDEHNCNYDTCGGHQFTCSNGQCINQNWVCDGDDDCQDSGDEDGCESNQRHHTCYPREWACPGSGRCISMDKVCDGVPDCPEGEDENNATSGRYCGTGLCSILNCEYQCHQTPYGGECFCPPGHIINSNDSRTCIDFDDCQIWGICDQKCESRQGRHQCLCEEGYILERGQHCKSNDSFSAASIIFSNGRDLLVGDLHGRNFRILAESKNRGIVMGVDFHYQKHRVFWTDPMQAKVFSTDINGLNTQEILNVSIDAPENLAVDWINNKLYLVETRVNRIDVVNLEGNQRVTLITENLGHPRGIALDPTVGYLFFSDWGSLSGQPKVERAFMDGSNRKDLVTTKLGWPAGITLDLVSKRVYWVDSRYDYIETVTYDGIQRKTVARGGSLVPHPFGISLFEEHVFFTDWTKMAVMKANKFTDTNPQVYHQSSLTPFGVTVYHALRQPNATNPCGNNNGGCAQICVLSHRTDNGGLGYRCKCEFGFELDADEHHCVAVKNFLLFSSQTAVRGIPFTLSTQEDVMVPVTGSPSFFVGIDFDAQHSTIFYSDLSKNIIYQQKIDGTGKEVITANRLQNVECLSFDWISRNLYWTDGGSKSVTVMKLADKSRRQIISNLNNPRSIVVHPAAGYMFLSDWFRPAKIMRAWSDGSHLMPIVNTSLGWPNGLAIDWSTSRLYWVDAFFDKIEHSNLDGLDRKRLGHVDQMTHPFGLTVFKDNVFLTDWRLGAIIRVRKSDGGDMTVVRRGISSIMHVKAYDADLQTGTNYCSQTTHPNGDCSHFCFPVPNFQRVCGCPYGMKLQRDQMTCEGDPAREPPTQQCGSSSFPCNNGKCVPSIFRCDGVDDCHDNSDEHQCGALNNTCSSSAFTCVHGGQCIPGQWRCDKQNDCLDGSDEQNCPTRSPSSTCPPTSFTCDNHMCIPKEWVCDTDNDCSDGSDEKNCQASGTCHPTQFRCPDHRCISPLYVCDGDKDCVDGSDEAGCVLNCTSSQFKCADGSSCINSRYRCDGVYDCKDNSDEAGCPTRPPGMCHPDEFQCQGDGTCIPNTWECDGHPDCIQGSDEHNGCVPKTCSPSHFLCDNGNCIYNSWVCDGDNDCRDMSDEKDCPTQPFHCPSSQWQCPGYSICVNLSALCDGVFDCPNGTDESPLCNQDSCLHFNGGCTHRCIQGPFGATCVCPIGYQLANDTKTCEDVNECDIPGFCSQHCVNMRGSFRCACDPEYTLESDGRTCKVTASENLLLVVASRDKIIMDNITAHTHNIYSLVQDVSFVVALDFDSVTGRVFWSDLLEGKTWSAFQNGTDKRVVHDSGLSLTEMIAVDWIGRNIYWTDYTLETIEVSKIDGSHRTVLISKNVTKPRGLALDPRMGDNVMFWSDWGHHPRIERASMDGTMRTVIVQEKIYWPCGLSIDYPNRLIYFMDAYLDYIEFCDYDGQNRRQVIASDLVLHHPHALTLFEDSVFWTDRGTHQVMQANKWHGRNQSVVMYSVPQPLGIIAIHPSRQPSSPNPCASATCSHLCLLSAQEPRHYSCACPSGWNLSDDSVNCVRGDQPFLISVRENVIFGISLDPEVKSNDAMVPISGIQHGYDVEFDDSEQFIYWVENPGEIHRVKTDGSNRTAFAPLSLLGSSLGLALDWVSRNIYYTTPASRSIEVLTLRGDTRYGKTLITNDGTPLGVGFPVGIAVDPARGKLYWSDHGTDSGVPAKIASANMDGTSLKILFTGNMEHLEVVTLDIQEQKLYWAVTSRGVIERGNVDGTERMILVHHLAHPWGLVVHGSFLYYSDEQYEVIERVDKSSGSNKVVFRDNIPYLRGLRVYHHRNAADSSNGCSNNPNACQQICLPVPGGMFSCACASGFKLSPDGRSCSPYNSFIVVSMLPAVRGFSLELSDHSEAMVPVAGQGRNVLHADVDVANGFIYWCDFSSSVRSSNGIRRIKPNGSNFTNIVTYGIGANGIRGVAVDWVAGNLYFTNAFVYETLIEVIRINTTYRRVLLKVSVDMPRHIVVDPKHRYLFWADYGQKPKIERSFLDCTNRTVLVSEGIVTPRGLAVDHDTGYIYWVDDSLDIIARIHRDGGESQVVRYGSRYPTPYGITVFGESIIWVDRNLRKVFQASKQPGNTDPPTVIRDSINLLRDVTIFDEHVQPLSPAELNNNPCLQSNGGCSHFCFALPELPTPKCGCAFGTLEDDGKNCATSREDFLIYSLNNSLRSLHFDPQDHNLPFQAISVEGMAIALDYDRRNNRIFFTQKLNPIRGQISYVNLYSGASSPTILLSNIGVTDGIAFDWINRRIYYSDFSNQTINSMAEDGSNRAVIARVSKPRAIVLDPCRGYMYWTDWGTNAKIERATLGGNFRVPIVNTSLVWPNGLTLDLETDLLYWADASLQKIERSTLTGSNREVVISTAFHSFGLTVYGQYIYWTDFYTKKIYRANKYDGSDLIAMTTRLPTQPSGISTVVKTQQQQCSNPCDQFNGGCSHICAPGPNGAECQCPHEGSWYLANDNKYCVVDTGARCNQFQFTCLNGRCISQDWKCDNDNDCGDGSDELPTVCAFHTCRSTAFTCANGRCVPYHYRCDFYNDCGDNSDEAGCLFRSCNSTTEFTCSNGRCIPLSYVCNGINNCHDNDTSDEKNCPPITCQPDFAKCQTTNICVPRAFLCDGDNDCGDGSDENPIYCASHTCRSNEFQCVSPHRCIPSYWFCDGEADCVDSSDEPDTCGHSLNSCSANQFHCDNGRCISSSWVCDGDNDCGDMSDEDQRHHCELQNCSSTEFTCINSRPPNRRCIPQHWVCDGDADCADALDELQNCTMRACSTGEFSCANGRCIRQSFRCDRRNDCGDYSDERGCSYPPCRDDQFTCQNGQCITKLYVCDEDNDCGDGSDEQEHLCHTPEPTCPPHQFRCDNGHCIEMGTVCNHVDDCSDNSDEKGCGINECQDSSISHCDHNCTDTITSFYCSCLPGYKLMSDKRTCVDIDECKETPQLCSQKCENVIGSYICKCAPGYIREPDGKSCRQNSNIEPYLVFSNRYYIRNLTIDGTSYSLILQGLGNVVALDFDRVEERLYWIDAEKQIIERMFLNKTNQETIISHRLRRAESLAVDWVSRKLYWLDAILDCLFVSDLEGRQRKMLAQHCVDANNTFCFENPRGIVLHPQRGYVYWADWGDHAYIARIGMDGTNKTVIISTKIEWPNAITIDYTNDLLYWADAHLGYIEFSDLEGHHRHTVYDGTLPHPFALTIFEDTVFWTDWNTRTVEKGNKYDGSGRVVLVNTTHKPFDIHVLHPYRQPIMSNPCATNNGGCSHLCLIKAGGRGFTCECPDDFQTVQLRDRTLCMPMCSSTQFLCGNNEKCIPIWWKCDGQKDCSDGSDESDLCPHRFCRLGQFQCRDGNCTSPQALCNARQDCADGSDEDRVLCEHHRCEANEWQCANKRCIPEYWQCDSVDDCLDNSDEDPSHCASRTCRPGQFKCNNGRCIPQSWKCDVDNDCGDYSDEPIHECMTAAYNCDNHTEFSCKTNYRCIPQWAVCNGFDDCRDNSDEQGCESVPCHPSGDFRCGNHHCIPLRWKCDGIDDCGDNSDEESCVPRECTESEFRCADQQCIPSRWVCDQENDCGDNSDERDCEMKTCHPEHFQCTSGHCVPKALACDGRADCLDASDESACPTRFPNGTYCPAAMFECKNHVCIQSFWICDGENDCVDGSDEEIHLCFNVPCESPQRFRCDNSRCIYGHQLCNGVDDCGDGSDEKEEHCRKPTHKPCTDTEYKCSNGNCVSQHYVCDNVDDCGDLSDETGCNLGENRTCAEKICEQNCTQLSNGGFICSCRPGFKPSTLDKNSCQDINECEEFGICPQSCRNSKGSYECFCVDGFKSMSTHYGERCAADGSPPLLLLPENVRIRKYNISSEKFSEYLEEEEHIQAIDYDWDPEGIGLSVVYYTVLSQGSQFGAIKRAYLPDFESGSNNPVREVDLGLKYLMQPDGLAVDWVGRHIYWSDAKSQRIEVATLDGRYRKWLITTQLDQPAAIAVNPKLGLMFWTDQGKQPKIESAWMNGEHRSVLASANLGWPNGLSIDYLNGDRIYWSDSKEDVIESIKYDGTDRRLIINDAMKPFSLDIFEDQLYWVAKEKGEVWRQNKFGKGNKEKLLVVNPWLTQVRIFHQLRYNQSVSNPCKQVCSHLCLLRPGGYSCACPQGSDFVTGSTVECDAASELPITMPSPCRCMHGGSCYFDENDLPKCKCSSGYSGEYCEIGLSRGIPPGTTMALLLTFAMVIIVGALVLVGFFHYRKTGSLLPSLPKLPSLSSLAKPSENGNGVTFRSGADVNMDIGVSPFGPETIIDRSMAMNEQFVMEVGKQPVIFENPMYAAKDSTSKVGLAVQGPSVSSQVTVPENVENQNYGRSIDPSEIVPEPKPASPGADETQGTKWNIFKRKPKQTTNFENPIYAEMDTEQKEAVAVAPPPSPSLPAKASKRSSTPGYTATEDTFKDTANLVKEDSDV

serum Cr compared to the control (NS) group ([1]; 200 μL iomeprol tail vein 24 h after reperfusion, evaluated 48 h after administration, FIG. 1): significant (t-test) increase
PAS staining of kidney tissue ([1]; 200 μL iomeprol, 48 h after administration, FIG. 3): formation of vacuoles was observed
binding of protein of interest to contrast solid phased on beads (WB band, heat-eluted samples) [4]: bound in a specific manner
iodine contents detected in kidney slices by EPMA, NDRG1-Cre mice versus control mice [6]: lower
Structure (SMILES): CN(C(=O)CO)c1c(I)c(C(=O)NCC(O)CO)c(I)c(C(=O)NCC(O)CO)c1I (stereo not shown) [iomeprol]
KIM-1 expression in kidney tissue (immunostaining) ([1]; 200 μL iomeprol, 48 h after administration, FIG. 2): widely expressed mainly in the S1 and S2 segments of renal proximal tubular epithelial cells
KIM-1 expression relative to megalin expression in renal proximal tubular epithelial cells [2]: expressed in a specific manner in the renal proximal tubular epithelial cells with expression of megalin
percentage of individuals with onset of contrast nephropathy ([3]; 200 μL iomeprol + 100 μL normal saline, 48 h after medication): 27%
KIM-1 expression in kidney tissue (immunostaining) ([3]; iomeprol + normal saline, individuals with increased serum creatinine, FIG. 17): widely expressed, mainly in the S1 and S2 segments
PAS staining of kidney tissue ([3]; iomeprol + normal saline, individuals with increased serum creatinine, FIG. 19): formation of vacuoles in renal proximal tubular epithelial cells was observed
iodine detected in kidney slices by EPMA, control mice [5]: High concentrations of iodine were detected
